# Experimental data from patent US20030206858A1, “Metal complex-containing pharmaceutical agents” (Schering AG, priority 1986, published 2003).
# Experiment: 153Gd remaining in the rat 7 days after i.v. injection of GdDTPA/dimeglumine
# Format: in vivo
# Conditions: rats, one week after i.v. injection of GdDTPA; 10% calcium trisodium DTPA added to the contrast medium, versus no additive
compound,measurement,value
"O=C([O-])CN(CCN(CC(=O)[O-])CC(=O)[O-])CCN(CC(=O)[O-])CC(=O)[O-].[Ca+2].[Na+].[Na+].[Na+] [calcium trisodium DTPA, Calcium-trisodium salt of DTPA]",reduction of the gadolinium concentration in the bones,about 45%
same,reduction of the portion of gadolinium remaining in the bodies,greater than 30%
